Laboratory results published in patent publication US20040022780A1, “Serine protease and topical retinoid compositions useful for treatment of acne vulgarise and production of anti-aging effects” (priority 1997, published 2004).

System: Rhino mouse skin
Assay: Histology after suboptimal trypsin, all-trans retinoic acid or both
Format: in vivo
Settings: suboptimal dose alone: 0.005% (w/v) trypsin or 0.0005% (w/v) all-trans retinoic acid
Procedure: A first set of Rhino mice of Example 1 were treated with suboptimal doses of the trypsin composition of Example 2. […] A second set of Rhino mice of Example 1 were treated with suboptimal concentrations of the all-trans retinoic acid composition of Example 2. A third set of Rhino mice of Example 1 were treated with both suboptimal doses of the trypsin composition of Example 2 and the all-trans retinoic acid composition of Example 2. In this third set of Rhino mice, the trypsin and all-trans retinoic acid treatments were each administered daily, but at different times (i.e. trypsin in the morning and all-trans retinoic acid in the afternoon). Mice were sacrificed and their skins were examined histologically with the procedure set forth in Example 3.

CC1=C(/C=C/C(C)=C/C=C/C(C)=C/C(=O)O)C(C)(C)CCC1 [all-trans retinoic acid, reference compound]
skin histology of treatment given alone vs untreated skin: marked inprovement
